# Source: US10219516B2, “Molecules having pesticidal utility, and intermediates, compositions, and processes, related thereto” (priority 2015, dated 2019)
# Columns and labels:
# Assay type in all cases: in vivo
# [1] = test system: Yellow Fever Mosquito (Aedes aegypti, AEDSAE); assay: Bioassay on Yellow Fever Mosquito (YFM), 96-well plate larval assay; details: Species YFM (Yellow Fever Mosquito)
# Procedure, shortened: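 Compound stocks at 4000 ppm in DMSO were diluted with 90:10 water/acetone, and 15 μL aliquots were dispensed into six replicate plates. About 1-day-old larvae in liver-powder water were added per well. Plates were covered and held at room temperature for 3 days before each well was scored for mortality.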
# [2] = test system: Beet Armyworm (Spodoptera exigua, LAPHEG); assay: Bioassay on Beet Armyworm (BAW), 128-well diet tray assay; details: Species BAW (Beet Armyworm), read-out: BAW (Biological Results, rating)
# Procedure, shortened: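 Diet in each of eight wells received 50 μg/cm^2 of test molecule (90:10 acetone-water, dried), then one to five second-instar larvae were added. Mortality (%) was scored after five to seven days at 25° C. under 14:10 light-dark and averaged across the wells.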
# [3] = test system: Cabbage Looper (Trichoplusia ni, TRIPNI); assay: Bioassay on Cabbage Looper (CL), 128-well diet tray assay; details: Trichoplusia ni; Species CL (Cabbage Looper); read-out: CL (Biological Results, rating)
# Procedure, shortened: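 Second-instar larvae, one to five per well, placed on artificial diet treated with 50 μg/cm^2 test molecule in 90:10 acetone-water, dried before infestation. Held 5–7 days at 25° C, 14:10 light-dark; percent mortality averaged over eight wells.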
SMILES,"YFM (Biological Results, rating) [1]",pest or weed control at 50 µg/cm2 [2] [%],pest or weed control at 50 µg/cm2 [3] [%]
"Nc1ccc(NC(=O)c2cc(NC(=O)[C@H]3[C@H](c4cc(Cl)cc(Cl)c4)C3(Cl)Cl)ccc2Cl)nc1 (relative stereo) [F305, N-(5-Aminopyridin-2-yl)-2-chloro-5-(trans-2,2-dichloro-3-(3,5-dichlorophenyl)cyclopropane-1-carboxamido)benzamide]",A (80-100),50 to 100,50 to 100
"O=C(Nc1ccc(F)cc1F)c1cc(NC(=O)[C@H]2[C@H](c3ccc(Br)c(Cl)c3)C2(Cl)Cl)ccc1Cl (relative stereo) [F306, 5-(trans-3-(4-Bromo-3-chlorophenyl)-2,2-dichlorocyclopropane-1-carboxamido)-2-chloro-N-(2,4-difluorophenyl)benzamide]",A (80-100),50 to 100,50 to 100
"CN(C(=O)c1cc(NC(=O)[C@H]2[C@H](c3ccc(Br)c(Cl)c3)C2(Cl)Cl)ccc1Cl)c1ccc(F)cc1 (relative stereo) [F307, 5-(trans-3-(4-Bromo-3-chlorophenyl)-2,2-dichlorocyclopropane-1-carboxamido)-2-chloro-N-(4-fluorophenyl)-N-methylbenzamide]",A (80-100),50 to 100,50 to 100
"N#Cc1cc(F)ccc1NC(=O)c1cc(NC(=O)[C@H]2[C@H](c3cc(C(F)(F)F)cc(C(F)(F)F)c3)C2(Cl)Cl)ccc1Cl (relative stereo) [F308, trans-5-(3-(3,5-bis(Trifluoromethyl)phenyl)-2,2-dichlorocyclopropane-1-carboxamido)-2-chloro-N-(2-cyano-4-fluorophenyl)benzamide]",A (80-100),50 to 100,50 to 100
"O=C(Nc1ncc(I)cc1F)c1cc(NC(=O)[C@H]2[C@H](c3cc(Cl)cc(Cl)c3)C2(Cl)Cl)ccc1Cl (relative stereo) [F312, 2-Chloro-5-(trans)-(2,2-dichloro-3-(3,5-dichlorophenyl)cyclopropane-1-carboxamido)-N-(3-fluoro-5-iodopyridin-2-yl)benzamide]",A (80-100),50 to 100,50 to 100
"C=Cc1ccc([C@H]2[C@H](C(=O)Nc3ccc(Cl)c(C(=O)Nc4ccc(F)cc4F)c3)C2(Cl)Cl)cc1Cl (relative stereo) [F319, 2-Chloro-5-(trans-2,2-dichloro-3-(3-chloro-4-vinylphenyl)cyclopropane-1-carboxamido)-N-(2,4-difluorophenyl)benzamide]",A (80-100),50 to 100,50 to 100
"N#Cc1cc(F)ccc1NC(=O)c1cc(NC(=O)[C@H]2[C@H](c3ccc(Br)c(Cl)c3)C2(Cl)Cl)ccc1Cl (relative stereo) [F320, 5-(trans-3-(4-Bromo-3-chlorophenyl)-2,2-dichlorocyclopropane-1-carboxamido)-2-chloro-N-(2-cyano-4-fluorophenyl)benzamide]",A (80-100),50 to 100,50 to 100
"Cc1cc(NC(=O)OC(C)(C)C)ccc1NC(=O)c1cc(NC(=O)[C@H]2[C@H](c3ccc(Br)c(Cl)c3)C2(Cl)Cl)ccc1Cl (relative stereo) [F322, tert-Butyl (4-(5-(trans-3-(4-bromo-3-chlorophenyl)-2,2-dichlorocyclopropane-1-carboxamido)-2-chlorobenzamido)-3-methylphenyl)carbamate]",A (80-100),50 to 100,50 to 100
"CNc1ccc(NC(=O)c2cc(NC(=O)[C@H]3[C@H](c4ccc(Br)c(Cl)c4)C3(Cl)Cl)ccc2Cl)c(C)c1 (relative stereo) [F323, 5-(trans-3-(4-bromo-3-chlorophenyl)-2,2-dichlorocyclopropane-1-carboxamido)-2-chloro-N-(2-methyl-4-(methylamino)phenyl)benzamide]",A (80-100),50 to 100,50 to 100
"Cc1cc(N)ccc1NC(=O)c1cc(NC(=O)[C@H]2[C@H](c3ccc(Br)c(Cl)c3)C2(Cl)Cl)ccc1Cl (relative stereo) [F324, N-(4-Amino-2-methylphenyl)-5-(trans-3-(4-bromo-3-chlorophenyl)-2,2-dichlorocyclopropane-1-carboxamido)-2-chlorobenzamide]",A (80-100),50 to 100,50 to 100
"Nc1c(F)ccc(NC(=O)c2cc(NC(=O)[C@H]3[C@H](c4ccc(Br)c(Cl)c4)C3(Cl)Cl)ccc2Cl)c1F (relative stereo) [F325, N-(3-Amino-2,4-difluorophenyl)-5-(trans-3-(4-bromo-3-chlorophenyl)-2,2-dichlorocyclopropane-1-carboxamido)-2-chlorobenzamide]",A (80-100),50 to 100,50 to 100
"Nc1cccc(NC(=O)c2cc(NC(=O)[C@H]3[C@H](c4cc(Cl)cc(Cl)c4)C3(Cl)Cl)ccc2Cl)n1 (relative stereo) [F326, trans-N-(6-aminopyridin-2-yl)-2-chloro-5-(2,2-dichloro-3-(3,5-dichlorophenyl)cyclopropane-1-carboxamido)benzamide]",A (80-100),50 to 100,50 to 100
"Nc1cccc(NC(=O)c2cc(NC(=O)[C@H]3[C@H](c4ccc(F)c(Cl)c4)C3(Cl)Cl)ccc2Cl)n1 (relative stereo) [F327, N-(6-Aminopyridin-2-yl)-2-chloro-5-(trans-2,2-dichloro-3-(3-chloro-4-fluorophenyl)cyclopropane-1-carboxamido)benzamide]",A (80-100),50 to 100,50 to 100
"C=Cc1ccc([C@H]2[C@H](C(=O)Nc3ccc(Cl)c(C(=O)N(C)c4ccc(F)cc4)c3)C2(Cl)Cl)cc1Cl (relative stereo) [F329, 2-Chloro-5-(trans-2,2-dichloro-3-(3-chloro-4-vinylphenyl)cyclopropane-1-carboxamido)-N-(4-fluorophenyl)-N-methylbenzamide]",A (80-100),50 to 100,50 to 100
"O=C(Nc1ccc(F)cc1)c1cc(NC(=O)[C@H]2[C@H](c3ccc(Cl)c(Br)c3)C2(Cl)Cl)ccc1Cl (relative stereo) [F330, 5-(trans-3-(3-Bromo-4-chlorophenyl)-2,2-dichlorocyclopropane-1-carboxamido)-2-chloro-N-(4-fluorophenyl)benzamide]",A (80-100),50 to 100,50 to 100
"O=C(Nc1ccc(F)cc1F)c1cc(NC(=O)[C@H]2[C@H](c3ccc(Cl)c(Br)c3)C2(Cl)Cl)ccc1Cl (relative stereo) [F331, 5-(trans-3-(3-Bromo-4-chlorophenyl)-2,2-dichlorocyclopropane-1-carboxamido)-2-chloro-N-(2,4-difluorophenyl)benzamide]",A (80-100),50 to 100,50 to 100
"N#Cc1cc(F)ccc1NC(=O)c1cc(NC(=O)[C@H]2[C@H](c3ccc(Cl)c(Br)c3)C2(Cl)Cl)ccc1Cl (relative stereo) [F332, 5-(trans-3-(3-Bromo-4-chlorophenyl)-2,2-dichlorocyclopropane-1-carboxamido)-2-chloro-N-(2-cyano-4-fluorophenyl)benzamide]",A (80-100),50 to 100,50 to 100
"N#Cc1cc(F)ccc1NC(=O)c1cc(NC(=O)[C@H]2[C@H](c3cc(Cl)cc(Br)c3)C2(Cl)Cl)ccc1Cl (relative stereo) [F333, 5-(trans-3-(3-Bromo-5-chlorophenyl)-2,2-dichlorocyclopropane-1-carboxamido)-2-chloro-N-(2-cyano-4-fluorophenyl)benzamide]",A (80-100),50 to 100,50 to 100
"Cc1cc(NC(=O)OC(C)(C)C)ccc1NC(=O)c1cc(NC(=O)[C@H]2[C@H](c3ccc(Cl)c(Br)c3)C2(Cl)Cl)ccc1Cl (relative stereo) [F334, tert-Butyl (4-(5-(trans-3-(3-bromo-4-chlorophenyl)-2,2-dichlorocyclopropane-1-carboxamido)-2-chlorobenzamido)-3-methylphenyl)carbamate]",A (80-100),50 to 100,50 to 100
"Cc1cc(N)ccc1NC(=O)c1cc(NC(=O)[C@H]2[C@H](c3cc(Cl)cc(Br)c3)C2(Cl)Cl)ccc1Cl (relative stereo) [F337, N-(4-Amino-2-methylphenyl)-5-(trans-3-(3-bromo-5-chlorophenyl)-2,2-dichlorocyclopropane-1-carboxamido)-2-chlorobenzamide]",A (80-100),50 to 100,50 to 100
